Assay type in all cases: in vivo
One assay concerns Echinochloa crus-galli. Briefly: Field test in sunflowers, control of Echinochloa crus-galli (Example 1). Conditions: sunflower field, spraying, clomazone 90 g/ha, pethoxamid 1200 g/ha, combination 90+1200 g/ha, 55 days after application, 0 = no damage, 100 = complete destruction. The text has this:
(§1) In the Colby method, also referred to as the Limpels method, the action to be expected E for a given active ingredient combination obeys the so-called Colby formula. According to Colby, the expected action of active ingredients A+B using p+q ppm of active ingredient is:
(§2) [formula] where ppm=milligrams of active ingredient (=a.i.) per liter of spray mixture X=% action by component A using p ppm of active ingredient Y=% action by component B using q ppm of active ingredient. If the ratio R defined as the action actually observed (O) divided by the expected action (E) is >1 then the action of the combination is superadditive, i.e. there is a synergistic effect. […]
(§3) The herbicidal compounds A and B were applied in the formulation in which they are present as commercially available product. Damage by the herbicidal compositions was evaluated with reference to a scale of 0% to 100% in comparison with untreated control plots. […]
(§4) In a field of sunflowers, clomazone (rate of 90 g/ha) and pethoxamid (rate of 1200 g/ha) were applied individually and in combination (90+1200 g/ha) to different plots by spraying. 55 days after application the rate of control of various weeds was recorded. The expected control is calculated according to the Colby method.

In a further assay the test system is Solanum nigrum. The assay is described as follows: Field test in sunflowers, control of Solanum nigrum (Example 1). Conditions: sunflower field, spraying, clomazone 90 g/ha, pethoxamid 1200 g/ha, combination 90+1200 g/ha, 55 days after application.
Excerpt: as §1, §2, §3, §4

The next assay concerns Mercurialis annua. Briefly: Field test in sunflowers, control of Mercurialis annua (Example 2). Conditions: sunflower field, spraying, clomazone 90 g/ha, pethoxamid 1200 g/ha, combination 90+1200 g/ha, 50 days after application.
Excerpt: as §1, §2, §3
(§5) In a field of sunflowers, clomazone (rate of 90 g/ha) and pethoxamid (rate of 1200 g/ha) were applied individually and in combination (90+1200 g/ha) to different plots by spraying. 50 days after application the rate of control of various weeds was recorded. The expected control is calculated according to the Colby method.

For the next assay, the system named is Ambrosia artemisiifolia. Briefly: Field test in sunflowers, control of Ambrosia artemisiifolia (Example 2). Conditions: sunflower field, spraying, clomazone 90 g/ha, pethoxamid 1200 g/ha, combination 90+1200 g/ha, 50 days after application.
Excerpt: as §1, §2, §3, §5

In the next assay the test system is Viola arvensis. The assay is described as follows: Oilseed rape field test, control of Viola arvensis (Example 3). The settings on record: spraying, clomazone 72, pethoxamid 1200, combination 72 + 1200 g AI/hectare, 206 days after application.
Excerpt: as §1, §2, §3
In an oilseed rape field, Clomazone, and pethoxamid were applied individually and in combination to different plots by spraying. 206 days after application the rate of control of Viola arvensis was recorded. The expected control is calculated according to the Colby method.

For a further assay, the system named is Galium aparine. The assay is described as follows: Oilseed rape field test, control of Galium aparine (Example 4). Conditions: spraying, clomazone 72, pethoxamid 1200, combination 72 + 1200 g AI/hectare, 64 days after application.
Excerpt: as §1, §2, §3
In an oilseed rape field, Clomazone, and pethoxamid were applied individually and in combination to different plots by spraying. 64 days after application the rate of control of Galium aparine was recorded. The expected control is calculated according to the Colby method.

The structures appear in SMILES notation.

With `CCOCCN(C(=O)CCl)C(=C(C)C)c1ccccc1` [Pethoxamid, pethoxamid], the “Control observed (O) %” value is 47% with Echinochloa crus-galli; 47% with Solanum nigrum; 27% in the assay with Mercurialis annua; 10% in the assay on Ambrosia artemisiifolia; 50% in the assay on Viola arvensis; 0% in the assay on Galium aparine.

`CC1(C)CON(Cc2ccccc2Cl)C1=O` [Clomazone, clomazone]: the “Control observed (O) %” value in the assay on Echinochloa crus-galli was found to be 50%; in the assay on Solanum nigrum, 37%; with Mercurialis annua, 13%; in the assay with Ambrosia artemisiifolia it was 10%; in the assay with Viola arvensis, 0%; with Galium aparine, 40%.
